Data published in patent US12011421B2, “Curcuphenol compounds for increasing MHC-I expression” (Cava Healthcare Inc., priority 2013, dated 2024).

Columns and labels:
MHC-I = MHC-I expression in TC1/A9 murine lung tumor cells; assay type: cell-based; conditions: FIG. 11A
Method: (§1) Curcuphenol and four curcuphenol analogs (see FIG. 10) were synthesized and tested for the ability to increase MHC-I expression in TC1/A9 murine lung tumor cells. Toxicity was also measured by propidium iodide (PI) exclusion.

[1] = test system: TC1/A9 murine lung tumor cells; assay: Cell toxicity in A9 cells by PI exclusion and intact cell number; assay type: cell-based; conditions: FIG. 11B
Method: as §1

`CC(C)=CCCCc1ccc(C)cc1O` [PC-02/113] was tested, and the “MHC-I expression relative to controls” value (MHC-I) was “significantly increasing MHC-I expression” and the “toxicity by propidium iodide (PI) exclusion and intact cell number” value [1] was “acceptable levels of toxicity”.

`CC(C)=CCC[C@H](C)c1ccc(C)cc1O` (stereo in doubt) [curcuphenol, phenol,2-(1,5-dimethyl-4-hexenyl)-5-methyl-, (S)—] was tested, and the “MHC-I expression relative to controls” value (MHC-I) was “significantly increasing MHC-I expression” and the “toxicity by propidium iodide (PI) exclusion and intact cell number” value [1] was “acceptable levels of toxicity”.
